Results taken from patent US10030004B2, “Compounds and methods of use” (Medivation Technologies LLC, priority 2014, dated 2018).
Where two headings read alike, the source gives them in different places.

What was measured:
ALK3 (BMPR1A) = ALK3 (BMPR1A) (Homo sapiens (Human), UniProt P36894); experiment: In vitro kinase assay, ALK3; assay type: biochemical; settings: 10 μM ATP; read-out: Inhibition of ALK3 IC50
ALK1 (ACVRL1) = ALK1 (ACVRL1) (Homo sapiens (Human), UniProt P37023); experiment: In vitro kinase assay, ALK1; assay type: biochemical; settings: 10 μM ATP; read-out: Inhibition of ALK1 IC50
Chain of ALK1 (ACVRL1) (P37023 22-503): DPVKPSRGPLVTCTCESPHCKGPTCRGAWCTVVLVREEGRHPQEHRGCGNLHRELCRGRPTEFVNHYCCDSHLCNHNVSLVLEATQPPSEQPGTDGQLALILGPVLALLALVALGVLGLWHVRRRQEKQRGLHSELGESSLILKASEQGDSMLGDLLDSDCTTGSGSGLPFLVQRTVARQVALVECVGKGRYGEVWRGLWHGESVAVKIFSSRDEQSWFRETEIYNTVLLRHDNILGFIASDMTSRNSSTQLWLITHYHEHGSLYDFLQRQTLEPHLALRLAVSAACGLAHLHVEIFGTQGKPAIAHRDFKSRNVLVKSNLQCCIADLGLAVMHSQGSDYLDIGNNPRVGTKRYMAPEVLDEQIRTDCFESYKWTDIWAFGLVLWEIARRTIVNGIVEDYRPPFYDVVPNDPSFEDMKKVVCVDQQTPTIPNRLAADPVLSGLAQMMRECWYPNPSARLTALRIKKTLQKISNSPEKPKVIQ

ALK6 (BMPR1B) = ALK6 (BMPR1B) (Homo sapiens (Human), UniProt O00238); experiment: In vitro kinase assay, ALK6; assay type: biochemical
Chain of ALK6 (BMPR1B) (O00238 14-502): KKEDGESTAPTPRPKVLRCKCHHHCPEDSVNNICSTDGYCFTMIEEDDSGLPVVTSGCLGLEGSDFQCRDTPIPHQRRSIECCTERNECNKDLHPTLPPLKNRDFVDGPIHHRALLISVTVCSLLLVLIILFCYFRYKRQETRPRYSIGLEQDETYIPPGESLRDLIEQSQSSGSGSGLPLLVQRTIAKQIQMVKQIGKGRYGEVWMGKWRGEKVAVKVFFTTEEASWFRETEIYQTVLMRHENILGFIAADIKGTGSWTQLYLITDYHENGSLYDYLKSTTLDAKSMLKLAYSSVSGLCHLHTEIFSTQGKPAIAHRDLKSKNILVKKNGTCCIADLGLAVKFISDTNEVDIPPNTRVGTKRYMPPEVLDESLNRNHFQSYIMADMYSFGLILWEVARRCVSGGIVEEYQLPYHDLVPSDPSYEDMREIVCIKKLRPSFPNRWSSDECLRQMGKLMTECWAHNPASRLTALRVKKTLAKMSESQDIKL

ALK5 (TGFBR1) = ALK5 (TGFBR1) (Homo sapiens (Human), UniProt P36897); experiment: In vitro kinase assay, ALK5; assay type: biochemical; settings: 10 μM ATP; read-out: Inhibition of ALK5 IC50
Chain of ALK5 (TGFBR1) (P36897 34-503): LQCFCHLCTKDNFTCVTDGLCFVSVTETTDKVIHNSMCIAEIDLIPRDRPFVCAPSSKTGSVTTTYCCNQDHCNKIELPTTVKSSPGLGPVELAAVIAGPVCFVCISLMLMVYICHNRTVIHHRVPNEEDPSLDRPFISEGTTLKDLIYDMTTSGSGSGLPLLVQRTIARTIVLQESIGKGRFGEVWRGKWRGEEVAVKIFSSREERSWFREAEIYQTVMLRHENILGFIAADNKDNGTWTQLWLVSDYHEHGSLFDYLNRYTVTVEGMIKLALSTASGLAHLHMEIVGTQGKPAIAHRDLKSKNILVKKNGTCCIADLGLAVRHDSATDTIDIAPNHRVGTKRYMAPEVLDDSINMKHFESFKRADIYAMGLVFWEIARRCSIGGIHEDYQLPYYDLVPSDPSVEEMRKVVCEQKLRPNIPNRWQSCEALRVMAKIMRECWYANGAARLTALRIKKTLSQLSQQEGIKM

ALK4 (ACVR1B) = ALK4 (ACVR1B) (Homo sapiens (Human), UniProt P36896); experiment: In vitro kinase assay, ALK4; assay type: biochemical; settings: 10 μM ATP; read-out: Inhibition of ALK4 IC50
Chain of ALK4 (ACVR1B) (P36896 24-505): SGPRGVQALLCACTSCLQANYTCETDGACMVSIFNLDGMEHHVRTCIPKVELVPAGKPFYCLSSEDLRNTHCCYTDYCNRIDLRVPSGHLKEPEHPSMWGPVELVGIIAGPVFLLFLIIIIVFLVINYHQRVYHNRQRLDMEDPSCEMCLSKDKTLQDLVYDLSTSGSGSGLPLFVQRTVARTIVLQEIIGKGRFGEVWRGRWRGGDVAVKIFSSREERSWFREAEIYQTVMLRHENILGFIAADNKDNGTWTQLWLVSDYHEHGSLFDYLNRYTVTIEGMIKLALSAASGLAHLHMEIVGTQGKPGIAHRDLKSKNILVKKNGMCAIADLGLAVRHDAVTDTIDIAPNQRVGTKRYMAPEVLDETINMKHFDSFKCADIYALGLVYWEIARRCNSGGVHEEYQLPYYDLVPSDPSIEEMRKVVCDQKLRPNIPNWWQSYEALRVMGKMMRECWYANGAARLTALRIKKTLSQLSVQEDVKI

ALK2 (ACVR1) = ALK2 (ACVR1) (Homo sapiens (Human), UniProt Q04771); experiment: In vitro kinase assay, ALK2; assay type: biochemical; settings: read-out: Inhibition of ALK2 IC50
Chain of ALK2 (ACVR1) (Q04771 21-509): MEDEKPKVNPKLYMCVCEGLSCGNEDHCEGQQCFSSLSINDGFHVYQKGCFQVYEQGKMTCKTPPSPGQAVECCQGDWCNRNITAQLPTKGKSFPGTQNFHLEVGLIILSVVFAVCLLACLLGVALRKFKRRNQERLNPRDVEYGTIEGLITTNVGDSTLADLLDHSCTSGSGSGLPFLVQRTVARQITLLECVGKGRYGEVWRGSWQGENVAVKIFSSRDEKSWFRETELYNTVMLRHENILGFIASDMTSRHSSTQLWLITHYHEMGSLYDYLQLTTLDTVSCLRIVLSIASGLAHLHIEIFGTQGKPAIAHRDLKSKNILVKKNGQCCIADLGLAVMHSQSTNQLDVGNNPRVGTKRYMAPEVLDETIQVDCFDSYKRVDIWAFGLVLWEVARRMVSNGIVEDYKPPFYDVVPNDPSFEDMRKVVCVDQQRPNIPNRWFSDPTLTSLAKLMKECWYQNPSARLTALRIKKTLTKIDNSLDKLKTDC

p-SMAD2 = p-SMAD2 inhibition, Western Blot Analysis in TGFβ-stimulated MDA-MB-231 cells; assay type: cell-based; settings: Homo sapiens, TGFβ 2 ng/mL, triplicate; for inhibition at 0.1 µM: 0.1 μM compound, read-out: Average p-SMAD2 inhibition @ 0.1 μM (% Inh)
[1] = Pharmacokinetics and bioavailability in male mice after a single dose; assay type: in vivo; settings: for half-life: read-out: Terminal t1/2 (converted)
[2] = 10 μM ATP, read-out: Inhibition of ALK6 IC50
[3] = mouse, plasma, intravenous, 2 mg/kg

Chain of ALK3 (BMPR1A) (P36894 24-532): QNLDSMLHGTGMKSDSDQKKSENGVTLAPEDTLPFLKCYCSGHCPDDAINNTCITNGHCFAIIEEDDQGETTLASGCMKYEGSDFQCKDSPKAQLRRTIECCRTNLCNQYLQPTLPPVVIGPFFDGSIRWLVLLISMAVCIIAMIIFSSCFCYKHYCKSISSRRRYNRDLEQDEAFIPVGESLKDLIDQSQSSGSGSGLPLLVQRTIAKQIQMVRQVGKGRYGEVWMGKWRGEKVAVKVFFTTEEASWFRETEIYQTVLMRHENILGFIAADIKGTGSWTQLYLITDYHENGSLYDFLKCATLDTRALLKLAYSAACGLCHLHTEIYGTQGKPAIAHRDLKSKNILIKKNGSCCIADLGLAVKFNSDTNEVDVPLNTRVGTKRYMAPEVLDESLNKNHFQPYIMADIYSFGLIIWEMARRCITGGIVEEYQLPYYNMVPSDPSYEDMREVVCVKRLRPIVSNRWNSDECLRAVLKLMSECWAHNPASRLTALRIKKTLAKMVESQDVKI

Row | IC50 (ALK6 (BMPR1B); [2]) [µM] | SMILES | IC50 (ALK3 (BMPR1A)) [µM] | IC50 (ALK1 (ACVRL1)) [µM] | IC50 (ALK2 (ACVR1); 10 μM ATP) [µM] | also measured
1 | – | CC(O)CNC(=O)c1c[nH]nc1Nc1cc(-c2cc(Cl)ccc2F)ncc1C(C)C (single isomer, unassigned) [21a, 3-[[2-(5-chloro-2-fluoro-phenyl)-5-isopropyl-4-pyridyl]amino]-N-(2-hydroxypropyl)-1H-pyrazole-4-carboxamide] | > 1000 | > 100 | > 1000 | IC50 (ALK6 (BMPR1B)): > 1000 µM; IC50 (ALK5 (TGFBR1)): > 100 µM; IC50 (ALK4 (ACVR1B)): > 1000 µM
2 | – | C=Cc1cnc(-c2cc(Cl)ccc2F)cc1Nc1ccncc1C(=O)NC[C@H](C)O [10a, (S)-4-(2-(5-chloro-2-fluorophenyl)-5-vinylpyridin-4-ylamino)-N-(2-hydroxypropyl)nicotinamide] | – | – | – | inhibition at 0.1 µM (p-SMAD2): 0%
3 | – | C=C(C)c1cnc(-c2cc(Cl)ccc2F)cc1Nc1ccncc1C(=O)NC(C)(C)CO [compound 8, 4-[[2-(5-chloro-2-fluoro-phenyl)-5-isopropenyl-4-pyridyl]amino]-N-(2-hydroxy-1,1-dimethyl-ethyl)pyridine-3-carboxamide] | > 100 | > 100 | – | V ([1]; intravenous, 2 mg/kg): 14.9 L/kg; AUC(0-t) [1, 3]: 709 nM·h; Cmax [1, 3]: 1.24 µM; clearance [1, 3]: 6.15 L/h/kg; half-life [1, 3]: 1.68 h; AUC(0-t) ([1]; mouse, plasma, oral, 10 mg/kg): 1310 nM·h; Cmax ([1]; mouse, plasma, oral, 10 mg/kg): 1.06 µM; Tmax ([1]; mouse, plasma, oral, 10 mg/kg): 0.25 h; bioavailability ([1]; mouse, plasma, oral, 10 mg/kg): 36.9%; half-life ([1]; mouse, plasma, oral, 10 mg/kg): 1.26 h; IC50 (ALK2 (ACVR1)): > 100 µM
4 | – | CC(C)c1cnc(-c2cc(Cl)ccc2F)cc1Nc1ccncc1C(=O)N1CCC(O)CC1 [compound 9, [4-[[2-(5-chloro-2-fluoro-phenyl)-5-isopropyl-4-pyridyl]amino]-3-pyridyl]-(4-hydroxy-1-piperidyl)methanone] | – | – | – | inhibition at 0.1 µM (p-SMAD2): 6%; inhibition at 0.5 µM (p-SMAD2; 0.5 μM compound, read-out: Average p-SMAD2 inhibition @ 0.5 μM (% Inh)): 12.7%
5 | > 1000 | CC(C)c1cnc(-c2ccccc2)cc1Nc1ccncc1C(=O)NC[C@H](C)O [compound 28, N-(2-hydroxypropyl)-4-[(5-isopropyl-2-phenyl-4-pyridyl)amino]pyridine-3-carboxamide] | > 1000 | > 100 | > 1000 | –
6 | > 10 | C[C@H](O)CNC(=O)c1cnccc1Nc1cc(-c2cc(Cl)ccc2F)ncc1C1CC1 [compound 31, 4-{[2-(5-chloro-2-fluorophenyl)-5-cyclopropylpyridin-4-yl]amino}-N-[(2S)-2-hydroxypropyl]pyridine-3-carboxamide] | > 10 | > 10 | > 10 | –

Row | SMILES | IC50 (ALK6 (BMPR1B); [2]) [µM] | IC50 (ALK3 (BMPR1A)) [µM] | IC50 (ALK1 (ACVRL1)) [µM] | IC50 (ALK2 (ACVR1); 10 μM ATP) [µM] | also measured
7 | C=C(C)c1cnc(-c2cc(Cl)ccc2F)cc1Nc1ccncc1C(=O)N[C@@H](CC)CO (single isomer, unassigned) [24a] | > 100 | > 100 | > 100 | > 100 | –
